Measurements published in article PMC3964211, “Pharmacokinetic modeling optimizes inhibition of the ‘undruggable’ EWS-FLI1 transcription factor in Ewing Sarcoma” (Oncotarget, 2013).

Key:
caveolin-1 = experiment: Caveolin-1 IHC staining of xenograft tumors; type: in vivo, SCID/bg mice; settings: xenograft tumors of mice treated BID IP 400 mg/kg, 3 days
Protocol: We evaluated the effect of EWS-FLI1 in animals treated with YK-4-279 upon caveolin-1, a recognized direct gene target whose expression is increased by EWS-FLI1 [22, 23]. […] In addition, the staining pattern changes from membraneous to a more diffuse pattern (Figure 5A).
Two million A4573 or SK-ES Ewing's sarcoma cells in 0.1 mL were injected into an orthotopic paraosseous location, adjacent to the left proximal tibia, in 5-week-old female severe combined immunodeficient-beige (SCID/bg) mice (Harlan Laboratories, Inc., Indianapolis, IN). After primary tumors reached 250 – 300 mm^3 size, mice were randomized and received intraperitoneal injection (IP) with vehicle control (0.25% Lecithin solution or DMSO), (S)-YK-4-279, (R)-YK-4-279 or racemic YK-4-279 at a dose of 400 mg/kg twice a day (BID) for 7 days in a week. The tumor volume was determined by the formula (D × d2/6) × p, where D was the longer diameter and d was the shorter diameter. Tumor volume was monitored every day by caliper until the tumor size reaches 1cm^3. Mice were euthanized and primary tumors were collected. […]
Five micron sections from formalin fxed paraffin embedded tissues were de-paraffinized with xylenes and rehydrated through a graded alcohol series. […] The sections were evaluated, in blinded fashion two times, by a pathologist (B.K.).

A4573 cells = experiment: Time point re-plating (colony formation) assay; type: cell-based; settings: for Colony counts: then replated without YK-4-279
Protocol: We determined the replating efficiency of A4573 cells after 12–84 hours of treatment with 3 ¼M YK-4-279. Cells were treated for the indicated exposure time then replated without YK-4-279 to assay for colony formation (Figure 1A).
A4573 cells were plated at a density of 2×10^5 cells/dish in 60 mm dishes and incubated for 8 hours before treatment start with 3 ¼M racemic YK-4-279. Cells were removed with trypsin at their respective treatment time, cell suspensions were centrifuged, and cells were resuspended in 500 ¼l of media. One hundred microliters of cell suspension was plated in each 10 cm dish (triplicates) with 12 ml of media. Dishes were incubated for 1 week before staining with crystal violet stain. Colonies were counted using Nikon NIS Elements BR Software.

[1] = Plasma concentration after IP injection of various formulations in C57BL/6 mice; type: in vivo; settings: C57BL/6 mouse plasma, 20 minutes after IP 200 mg/kg racemic mixture, 10% w/v sucrose, 1% v/v Tween 80, 5% v/v ethanol in DI water, mean ±SD, five mice
Protocol: The poor oral bioavailability determined from the rat study caused us to focus on IV delivery. Since mice often metabolize compounds differently from rats, we also evaluated the intraperitoneal (IP) PK profle and compared it to the IV profile. We determined pharmacokinetics in C57BL/6 mice given IV (Figure 2A) or IP (Figure 2B) administrations of 75 mg/kg YK-4-279, which was the maximal solubility of compound in 20% Cremophor EL. […] In addition, drug levels in tumor were measured using SCID/bg mice with orthotopic xenografts that were treated with daily IV injections of (S)-YK-4-279 for 6 days. […] In order to determine (S)-YK-4-279 levels in the tumors, the mice were euthanized 2 hours following the fnal IV bolus dose for harvest of both tumors and plasma. […] Since the IV treatment was ineffective at reducing tumor growth, despite measurable levels in the tumor tissue, models of IP administration were used to design follow-up effcacy studies.
The plasma and tumor sample analysis was performed using calibration standards and Quality Control (QC) samples prepared in control rat or mouse plasma and tumor tissues. Plasma and tumor calibration standards were prepared from stock solutions of YK-4-279. The calibration standards, blanks, QC samples, and study samples were then processed by solid-liquid extraction (SLE) followed by analysis using liquid chromatography with mass spectrometry (LC-MS). The LC-MS systems used for the analysis of YK-4-279 was composed of Shimadzo prominence pump and auto-sampler (Kyoto, Japan), a Sciex API 5000 MS (Toronto, Ontario), with turbo ion spary in the positive ion mode. The samples for the analysis of total YK-4-279 were injected into a 50 × 2 mm Gemini- NX, 5 ¼m column (Phenomenex, Torrance, CA). The samples for the analysis of the specific enantiomers of YK-4-279 were injected into a 150 × 2 mm Lux Cellulose-2, 3 ¼m Phenomenex column. The transitions monitored were 366 amu to 135 amu for YK-4-279 and 369 amu to 138 amu for the YK-4-279-d3 internal standard. YK-4-279 concentrations were calculated using peak area response ratios and a regression equation constructed from the concentrations and peak area response ratios of the calibration standards. The lower limit of quantitation was 5.0 ng/mL in plasma and […] in tumor tissue. The concentration-time profiles were evaluated by compartmental modeling and non-compartmental analysis using WinNonlin (Pharsight Corporation, Mountain View, CA). The PK parameters obtained from the compartmental modeling were used in simulations to identify optimal dose level and dosing schedule for maintaining plasma concentration of (S)-YK-4-279 above 3 ¼M.

[2] = Pharmacokinetics in C57BL/6 mice, IV or IP 75 mg/kg; type: in vivo; settings: IV 75 mg/kg
Protocol: The poor oral bioavailability determined from the rat study caused us to focus on IV delivery. Since mice often metabolize compounds differently from rats, we also evaluated the intraperitoneal (IP) PK profle and compared it to the IV profile. We determined pharmacokinetics in C57BL/6 mice given IV (Figure 2A) or IP (Figure 2B) administrations of 75 mg/kg YK-4-279, which was the maximal solubility of compound in 20% Cremophor EL. […] In addition, drug levels in tumor were measured using SCID/bg mice with orthotopic xenografts that were treated with daily IV injections of (S)-YK-4-279 for 6 days. […]
The plasma and tumor sample analysis was performed using calibration standards and Quality Control (QC) samples prepared in control rat or mouse plasma and tumor tissues. […] The transitions monitored were 366 amu to 135 amu for YK-4-279 and 369 amu to 138 amu for the YK-4-279-d3 internal standard. YK-4-279 concentrations were calculated using peak area response ratios and a regression equation constructed from the concentrations and peak area response ratios of the calibration standards. The lower limit of quantitation was 5.0 ng/mL in plasma and […] in tumor tissue. The concentration-time profiles were evaluated by compartmental modeling and non-compartmental analysis using WinNonlin (Pharsight Corporation, Mountain View, CA). […]

[3] = A4573 cells, 3 ¼M YK-4-279, 84 hours exposure

COc1ccc(C(=O)C[C@]2(O)C(=O)Nc3c(Cl)ccc(Cl)c32)cc1 [(R)-YK-4-279]
Caveolin-1 immunohistochemical staining (caveolin-1): expected membrane caveolin-1 expression

COc1ccc(C(=O)CC2(O)C(=O)Nc3c(Cl)ccc(Cl)c32)cc1 (stereo not shown) [YK-4-279]
Decrease in colony growth between the 24 and 36 hour time points (A4573 cells; A4573 cells, 3 ¼M YK-4-279): 3 fold | Colony counts (A4573 cells; A4573 cells, 3 ¼M YK-4-279, 24 hour exposure): 2229±101 colonies | Colony counts (A4573 cells; A4573 cells, 3 ¼M YK-4-279, 72 hours exposure): 53 colonies | Drop in colonies from the 24 hour time point (A4573 cells; [3]): 98.9% | Colony counts (A4573 cells; [3]): 25±12 colonies | Growth of surviving colonies replated in continuous presence of compound (A4573 cells; colonies from 72 and 84 hours harvested and replated in continuous presence of 3 ¼M YK-4-279): no growth was observed | (S)-YK-4-279 Concentrations ([1]; 0.25% lecithin, 0% DMSO, 0% soybean oil): 10.5 ± 8.6 ¼M | (S)-YK-4-279 Concentrations ([1]; 1.2% lecithin, 0% DMSO, 10% soybean oil): 20.9 ± 22.8 ¼M | (S)-YK-4-279 Concentrations ([1]; 1.2% lecithin, 10% DMSO, 0% soybean oil): 35.8 ± 45.0 ¼M | (S)-YK-4-279 Concentrations ([1]; 1.2% lecithin, 10% DMSO, 10% soybean oil): 39.1 ± 54.6 ¼M | (S)-YK-4-279 Concentrations ([1]; 2.5% lecithin, 0% DMSO, 10% soybean oil): 19.8 ± 20.5 ¼M | (S)-YK-4-279 Concentrations ([1]; 2.5% lecithin, 10% DMSO, 0% soybean oil): 59.7 ± 58.6 ¼M | (S)-YK-4-279 Concentrations ([1]; 2.5% lecithin, 10% DMSO, 10% soybean oil): 21.3 ± 11.3 ¼M | Time that peak levels would exceed 3 ¼M [2]: ~ 1 hour | Caveolin-1 immunohistochemical staining (caveolin-1): reduced caveolin-1 staining
